Experimental data: the NIST ThermoML archive (doi:10.1007/s10765-010-0860-3)

Assay: xn = mol fraction of the nth substance listed
Conditions: 101 kPa, Liquid; for viscosity: Capillary tube (Ostwald / Ubbelohde) method; for mass density: Pycnometric method

CC1COC(=O)O1 (configuration not stated) [4-methyl-1,3-dioxolan-2-one] + C1CCOC1
Conditions | mass density, 288.15 K [kg/m3] | mass density, 298.15 K [kg/m3] | mass density, 308.15 K [kg/m3] | viscosity, 288.15 K [mPa·s] | viscosity, 298.15 K [mPa·s] | viscosity, 308.15 K [mPa·s]
x1 = 0.0188 | 901.15 | 890.25 | 879.17 | 0.524 | 0.47 | 0.432
x1 = 0.0393 | 910.03 | 899.18 | 888.14 | 0.542 | 0.479 | 0.439
x1 = 0.0603 | 918.97 | 908.19 | 897.18 | 0.561 | 0.49 | 0.448
x1 = 0.077 | 926 | 915.27 | 904.28 | 0.575 | 0.5 | 0.455
x1 = 0.0988 | 935.05 | 924.38 | 913.41 | 0.594 | 0.513 | 0.466
x1 = 0.2117 | 979.75 | 969.45 | 958.45 | 0.696 | 0.6 | 0.541
x1 = 0.3057 | 1014.39 | 1004.06 | 993.26 | 0.794 | 0.699 | 0.629
x1 = 0.4024 | 1047.72 | 1037.25 | 1026.68 | 0.921 | 0.831 | 0.745
x1 = 0.4992 | 1078.98 | 1068.45 | 1057.96 | 1.088 | 0.998 | 0.89
x1 = 0.5997 | 1109.33 | 1098.74 | 1088.29 | 1.317 | 1.211 | 1.072
x1 = 0.7015 | 1138.16 | 1127.39 | 1117.06 | 1.626 | 1.473 | 1.289
x1 = 0.8033 | 1165.19 | 1154.55 | 1144.02 | 2.03 | 1.786 | 1.54
x1 = 0.9064 | 1190.96 | 1179.68 | 1169.74 | 2.556 | 2.158 | 1.83
x1 = 1 | 1208.67 | 1197.58 | 1187.16 | 3.086 | 2.5 | 2.073

CC(=O)CC(C)=O [2,4-pentanedione] + CC1COC(=O)O1
Conditions | mass density, 288.15 K [kg/m3] | mass density, 298.15 K [kg/m3] | mass density, 308.15 K [kg/m3] | viscosity, 288.15 K [mPa·s] | viscosity, 298.15 K [mPa·s] | viscosity, 308.15 K [mPa·s]
x2 = 0 | 980.34 | 972.18 | 963.46 | 0.741 | 0.67 | 0.609
x2 = 0.0212 | 984.24 | 975.79 | 966.83 | 0.769 | 0.692 | 0.627
x2 = 0.0438 | 988.61 | 979.89 | 970.69 | 0.797 | 0.714 | 0.646
x2 = 0.0625 | 992.42 | 983.48 | 974.11 | 0.821 | 0.732 | 0.661
x2 = 0.0827 | 996.68 | 987.54 | 977.99 | 0.845 | 0.751 | 0.677
x2 = 0.1026 | 1001.03 | 991.71 | 982 | 0.868 | 0.769 | 0.693
x2 = 0.201 | 1024.5 | 1014.55 | 1004.29 | 0.978 | 0.857 | 0.766
x2 = 0.2982 | 1050.05 | 1039.83 | 1029.34 | 1.086 | 0.944 | 0.838
x2 = 0.4028 | 1078.89 | 1068.64 | 1058.14 | 1.215 | 1.047 | 0.922
x2 = 0.5 | 1105.74 | 1095.61 | 1085.24 | 1.359 | 1.162 | 1.014
x2 = 0.6016 | 1132.67 | 1122.7 | 1112.52 | 1.549 | 1.313 | 1.133
x2 = 0.6985 | 1156.08 | 1146.19 | 1136.15 | 1.782 | 1.495 | 1.277
x2 = 0.7995 | 1176.95 | 1166.95 | 1156.95 | 2.093 | 1.735 | 1.466
x2 = 0.9016 | 1193.11 | 1182.69 | 1172.51 | 2.493 | 2.04 | 1.706

CC1COC(=O)O1 (configuration not stated) [4-methyl-1,3-dioxolan-2-one] + C1COCCO1
Conditions | mass density, 288.15 K [kg/m3] | mass density, 298.15 K [kg/m3] | mass density, 308.15 K [kg/m3] | viscosity, 288.15 K [mPa·s] | viscosity, 298.15 K [mPa·s] | viscosity, 308.15 K [mPa·s]
x1 = 0.0213 | 1042.6 | 1031.46 | 1020.15 | 1.429 | 1.181 | 1.027
x1 = 0.041 | 1045.89 | 1034.79 | 1023.54 | 1.421 | 1.177 | 1.027
x1 = 0.0636 | 1049.76 | 1038.7 | 1027.51 | 1.413 | 1.174 | 1.02
x1 = 0.0823 | 1053.01 | 1041.99 | 1030.85 | 1.408 | 1.173 | 1.026
x1 = 0.0999 | 1056.12 | 1045.13 | 1034.02 | 1.404 | 1.172 | 1.022
x1 = 0.202 | 1074.8 | 1064.02 | 1053.09 | 1.408 | 1.184 | 1.028
x1 = 0.299 | 1093.28 | 1082.69 | 1071.87 | 1.45 | 1.22 | 1.053
x1 = 0.3991 | 1112.62 | 1101.92 | 1091.44 | 1.534 | 1.286 | 1.102
x1 = 0.4991 | 1131.72 | 1121.15 | 1110.7 | 1.659 | 1.381 | 1.171
x1 = 0.5987 | 1150.06 | 1139.4 | 1129.1 | 1.826 | 1.508 | 1.274
x1 = 0.6996 | 1167.4 | 1156.75 | 1146.43 | 2.039 | 1.671 | 1.405
x1 = 0.8049 | 1183.66 | 1172.85 | 1162.59 | 2.307 | 1.878 | 1.571
x1 = 0.9003 | 1196.16 | 1185.45 | 1175.02 | 2.589 | 2.101 | 1.748
x1 = 1 | 1208.67 | 1197.58 | 1187.16 | 3.086 | 2.5 | 2.073
